From article PMC6757289, “Design and Characterization of SGK3-PROTAC1, an Isoform Specific SGK3 Kinase PROTAC Degrader” (ACS Chemical Biology, 2019)
Read-outs that look alike come from different tables or passages of the source.

Tests used:
Assay in all cases: kinase profiling panel
Format in all cases: biochemical
AMPK (hum) = conditions: 1 µM
From the text: (§1) Protein kinase profiling against a Dundee panel of 140 protein kinases was undertaken at the International Centre for Protein Kinase Profiling. The result for each kinase was presented as a mean kinase activity of the reaction taken in triplicate relative to a control sample treated with DMSO. Assay conditions and abbreviations are available at http://www.kinase-screen.mrc.ac.uk.

HIPK2 = HIPK2 (Homo sapiens, UniProt Q9H2X6); conditions: read-out: % Activity Remaining
Chain of HIPK2 (Q9H2X6 whole entry): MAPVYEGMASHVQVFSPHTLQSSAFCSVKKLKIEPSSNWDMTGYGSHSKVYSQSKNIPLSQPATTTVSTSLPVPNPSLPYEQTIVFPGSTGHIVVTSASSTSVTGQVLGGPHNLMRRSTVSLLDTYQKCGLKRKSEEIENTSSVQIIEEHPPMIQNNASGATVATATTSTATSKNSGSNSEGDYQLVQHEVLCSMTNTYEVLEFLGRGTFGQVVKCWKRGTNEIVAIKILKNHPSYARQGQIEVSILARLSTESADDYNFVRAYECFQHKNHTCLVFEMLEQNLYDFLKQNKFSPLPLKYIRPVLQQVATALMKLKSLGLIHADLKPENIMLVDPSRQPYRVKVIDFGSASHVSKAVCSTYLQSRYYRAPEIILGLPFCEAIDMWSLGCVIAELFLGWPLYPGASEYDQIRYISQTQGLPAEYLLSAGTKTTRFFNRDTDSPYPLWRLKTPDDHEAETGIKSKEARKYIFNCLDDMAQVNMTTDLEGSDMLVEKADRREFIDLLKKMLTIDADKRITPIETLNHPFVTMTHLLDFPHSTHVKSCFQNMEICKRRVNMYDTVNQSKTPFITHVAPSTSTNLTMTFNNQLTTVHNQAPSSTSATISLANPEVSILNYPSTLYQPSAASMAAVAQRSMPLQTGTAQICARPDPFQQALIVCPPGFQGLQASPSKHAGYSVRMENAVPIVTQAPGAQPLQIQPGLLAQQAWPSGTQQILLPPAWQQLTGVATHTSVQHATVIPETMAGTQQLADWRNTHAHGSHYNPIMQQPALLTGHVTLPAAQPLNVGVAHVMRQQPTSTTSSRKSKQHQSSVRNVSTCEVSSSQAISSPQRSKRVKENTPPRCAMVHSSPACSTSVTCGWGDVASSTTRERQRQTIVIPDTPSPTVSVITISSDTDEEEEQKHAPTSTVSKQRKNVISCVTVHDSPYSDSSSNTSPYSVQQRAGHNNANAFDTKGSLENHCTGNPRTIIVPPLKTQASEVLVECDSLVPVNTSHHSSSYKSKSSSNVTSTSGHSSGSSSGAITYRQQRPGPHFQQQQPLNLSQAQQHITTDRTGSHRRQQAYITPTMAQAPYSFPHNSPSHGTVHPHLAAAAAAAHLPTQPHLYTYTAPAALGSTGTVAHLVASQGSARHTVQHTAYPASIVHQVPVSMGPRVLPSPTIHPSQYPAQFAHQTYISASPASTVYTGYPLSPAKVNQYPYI
From the text: as §1

HIPK3 = HIPK3 (Homo sapiens, UniProt Q9H422); conditions: read-out: % Activity Remaining
Chain of HIPK3 (Q9H422 whole entry): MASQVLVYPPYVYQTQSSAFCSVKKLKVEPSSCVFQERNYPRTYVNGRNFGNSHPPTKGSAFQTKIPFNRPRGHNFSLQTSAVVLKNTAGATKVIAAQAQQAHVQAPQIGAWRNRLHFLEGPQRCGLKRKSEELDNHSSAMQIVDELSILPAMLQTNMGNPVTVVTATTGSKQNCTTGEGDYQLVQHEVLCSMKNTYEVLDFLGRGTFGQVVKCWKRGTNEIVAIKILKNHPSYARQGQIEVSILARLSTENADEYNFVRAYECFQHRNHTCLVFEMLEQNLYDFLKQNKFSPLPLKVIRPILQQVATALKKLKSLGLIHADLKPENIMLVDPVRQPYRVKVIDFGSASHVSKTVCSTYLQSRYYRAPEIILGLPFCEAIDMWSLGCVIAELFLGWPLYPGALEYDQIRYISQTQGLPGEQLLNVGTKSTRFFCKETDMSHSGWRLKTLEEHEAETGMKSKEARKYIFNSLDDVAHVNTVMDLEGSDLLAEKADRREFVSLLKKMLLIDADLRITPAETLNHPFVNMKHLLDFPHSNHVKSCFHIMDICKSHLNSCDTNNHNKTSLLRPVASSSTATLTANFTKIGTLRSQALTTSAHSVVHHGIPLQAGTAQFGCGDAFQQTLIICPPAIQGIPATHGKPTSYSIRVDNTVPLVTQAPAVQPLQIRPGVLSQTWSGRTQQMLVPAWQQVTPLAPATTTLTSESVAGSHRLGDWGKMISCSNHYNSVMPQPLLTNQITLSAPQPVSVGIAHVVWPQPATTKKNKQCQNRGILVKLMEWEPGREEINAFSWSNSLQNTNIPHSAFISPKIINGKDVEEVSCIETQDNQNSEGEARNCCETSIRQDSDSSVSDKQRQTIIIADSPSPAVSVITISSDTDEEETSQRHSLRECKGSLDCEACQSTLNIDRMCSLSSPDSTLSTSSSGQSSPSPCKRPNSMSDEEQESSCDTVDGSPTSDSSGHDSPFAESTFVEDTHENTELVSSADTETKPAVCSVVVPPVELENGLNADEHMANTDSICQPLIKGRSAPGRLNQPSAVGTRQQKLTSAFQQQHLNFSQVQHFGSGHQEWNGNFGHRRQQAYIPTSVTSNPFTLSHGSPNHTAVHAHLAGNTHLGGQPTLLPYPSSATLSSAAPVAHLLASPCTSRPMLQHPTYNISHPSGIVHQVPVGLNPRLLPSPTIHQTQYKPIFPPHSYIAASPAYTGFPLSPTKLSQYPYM
From the text: as §1

IKK beta = target: T1, IKK beta (Homo sapiens, UniProt O14920); conditions: read-out: % Activity Remaining
T1 sequence (O14920 1-756): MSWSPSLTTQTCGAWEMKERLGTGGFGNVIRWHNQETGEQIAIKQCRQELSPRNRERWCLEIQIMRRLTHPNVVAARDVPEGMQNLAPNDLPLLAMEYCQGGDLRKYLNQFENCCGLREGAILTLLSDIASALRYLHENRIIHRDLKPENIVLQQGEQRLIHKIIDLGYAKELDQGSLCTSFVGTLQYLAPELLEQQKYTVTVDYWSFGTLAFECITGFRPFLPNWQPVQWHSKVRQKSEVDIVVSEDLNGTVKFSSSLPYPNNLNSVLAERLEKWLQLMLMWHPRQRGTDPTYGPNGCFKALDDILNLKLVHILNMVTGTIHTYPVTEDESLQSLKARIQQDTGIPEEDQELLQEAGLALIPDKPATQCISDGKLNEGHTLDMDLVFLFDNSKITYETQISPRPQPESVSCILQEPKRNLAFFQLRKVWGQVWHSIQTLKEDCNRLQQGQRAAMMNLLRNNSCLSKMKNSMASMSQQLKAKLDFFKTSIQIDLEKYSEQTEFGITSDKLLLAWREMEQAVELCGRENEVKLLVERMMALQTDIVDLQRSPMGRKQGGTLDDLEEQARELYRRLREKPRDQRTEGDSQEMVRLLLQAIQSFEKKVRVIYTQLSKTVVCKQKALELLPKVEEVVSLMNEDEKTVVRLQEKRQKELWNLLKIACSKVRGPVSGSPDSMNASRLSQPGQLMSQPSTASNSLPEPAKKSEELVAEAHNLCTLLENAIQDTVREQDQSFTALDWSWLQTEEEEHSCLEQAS
From the text: as §1

MAP4K5 = MAP4K5 (Homo sapiens, UniProt Q9Y4K4); conditions: read-out: % Activity Remaining
Chain of MAP4K5 (Q9Y4K4 whole entry): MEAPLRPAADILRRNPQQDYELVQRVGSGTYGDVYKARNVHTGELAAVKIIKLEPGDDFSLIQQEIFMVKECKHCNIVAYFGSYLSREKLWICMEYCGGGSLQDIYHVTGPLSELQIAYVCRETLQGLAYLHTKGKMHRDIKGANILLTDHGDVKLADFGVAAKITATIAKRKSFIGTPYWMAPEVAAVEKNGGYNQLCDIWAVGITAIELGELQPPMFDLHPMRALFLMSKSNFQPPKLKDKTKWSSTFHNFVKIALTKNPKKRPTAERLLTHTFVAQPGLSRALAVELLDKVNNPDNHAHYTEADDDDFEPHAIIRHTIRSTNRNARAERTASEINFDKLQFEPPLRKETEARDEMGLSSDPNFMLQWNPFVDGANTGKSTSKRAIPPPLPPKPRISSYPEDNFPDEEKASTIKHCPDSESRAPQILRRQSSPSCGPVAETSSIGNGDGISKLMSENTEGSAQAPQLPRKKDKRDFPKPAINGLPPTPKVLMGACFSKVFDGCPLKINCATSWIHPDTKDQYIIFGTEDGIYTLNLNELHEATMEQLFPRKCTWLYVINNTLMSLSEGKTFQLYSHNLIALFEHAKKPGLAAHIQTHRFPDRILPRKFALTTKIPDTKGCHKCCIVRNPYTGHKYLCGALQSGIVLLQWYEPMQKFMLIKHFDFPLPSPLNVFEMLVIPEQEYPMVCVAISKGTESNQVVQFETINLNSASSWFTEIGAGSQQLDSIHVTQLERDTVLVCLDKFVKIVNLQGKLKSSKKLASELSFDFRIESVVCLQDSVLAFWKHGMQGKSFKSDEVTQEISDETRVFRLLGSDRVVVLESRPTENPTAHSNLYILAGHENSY
From the text: as §1

MKK6 = target: T2, MKK6 (Homo sapiens, UniProt P52564); conditions: read-out: % Activity Remaining
T2 sequence (P52564 1-334): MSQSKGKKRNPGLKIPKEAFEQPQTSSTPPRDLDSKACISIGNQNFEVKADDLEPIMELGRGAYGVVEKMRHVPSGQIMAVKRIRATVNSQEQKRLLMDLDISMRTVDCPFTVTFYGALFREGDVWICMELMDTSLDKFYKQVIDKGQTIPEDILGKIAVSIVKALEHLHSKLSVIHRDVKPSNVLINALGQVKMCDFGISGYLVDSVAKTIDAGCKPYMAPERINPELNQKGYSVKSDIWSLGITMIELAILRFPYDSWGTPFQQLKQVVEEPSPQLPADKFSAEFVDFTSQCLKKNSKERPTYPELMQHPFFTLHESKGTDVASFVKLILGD
From the text: as §1

PAK4 = PAK4 (Homo sapiens, UniProt O96013); conditions: read-out: % Activity Remaining
Chain of PAK4 (O96013 whole entry): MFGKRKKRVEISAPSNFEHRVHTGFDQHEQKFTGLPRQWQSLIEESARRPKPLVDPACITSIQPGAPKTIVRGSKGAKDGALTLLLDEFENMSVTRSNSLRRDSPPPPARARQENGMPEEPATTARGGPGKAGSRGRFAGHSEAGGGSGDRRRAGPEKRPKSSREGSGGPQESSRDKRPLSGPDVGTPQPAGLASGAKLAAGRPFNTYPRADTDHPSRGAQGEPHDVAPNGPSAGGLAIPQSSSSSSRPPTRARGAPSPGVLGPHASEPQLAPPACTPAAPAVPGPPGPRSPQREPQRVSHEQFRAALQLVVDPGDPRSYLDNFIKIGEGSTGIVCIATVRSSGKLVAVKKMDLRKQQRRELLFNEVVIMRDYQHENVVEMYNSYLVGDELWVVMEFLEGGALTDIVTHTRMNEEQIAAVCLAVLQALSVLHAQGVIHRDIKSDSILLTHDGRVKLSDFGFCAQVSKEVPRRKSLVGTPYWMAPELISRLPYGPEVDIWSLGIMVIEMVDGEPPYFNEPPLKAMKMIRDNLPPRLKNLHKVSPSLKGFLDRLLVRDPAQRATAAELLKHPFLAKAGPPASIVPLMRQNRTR
From the text: as §1

PKC gamma = PKC gamma (Homo sapiens, UniProt P05129); conditions: read-out: % Activity Remaining
From the text: as §1

S6K1 = S6K1 (Homo sapiens, UniProt P23443); conditions: read-out: % Activity Remaining
Chain of S6K1 (P23443 whole entry): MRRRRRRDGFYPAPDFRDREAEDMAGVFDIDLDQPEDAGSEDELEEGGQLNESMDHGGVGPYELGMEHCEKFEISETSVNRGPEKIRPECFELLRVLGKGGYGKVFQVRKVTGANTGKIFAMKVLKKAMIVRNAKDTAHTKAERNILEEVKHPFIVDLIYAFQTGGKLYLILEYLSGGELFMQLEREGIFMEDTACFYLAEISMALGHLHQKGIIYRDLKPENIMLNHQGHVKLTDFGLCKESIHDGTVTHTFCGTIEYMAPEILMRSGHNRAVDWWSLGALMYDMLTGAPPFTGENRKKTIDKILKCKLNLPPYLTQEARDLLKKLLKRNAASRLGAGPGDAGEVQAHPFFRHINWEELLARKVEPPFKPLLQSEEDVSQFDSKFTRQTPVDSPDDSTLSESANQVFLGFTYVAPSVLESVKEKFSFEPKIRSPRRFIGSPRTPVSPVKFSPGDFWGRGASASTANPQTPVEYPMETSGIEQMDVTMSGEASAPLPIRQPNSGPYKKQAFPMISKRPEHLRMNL
From the text: as §1

TBK1 = target: T3, TBK1 (Homo sapiens, UniProt Q9UHD2); conditions: read-out: % Activity Remaining
T3 sequence (Q9UHD2 1-729): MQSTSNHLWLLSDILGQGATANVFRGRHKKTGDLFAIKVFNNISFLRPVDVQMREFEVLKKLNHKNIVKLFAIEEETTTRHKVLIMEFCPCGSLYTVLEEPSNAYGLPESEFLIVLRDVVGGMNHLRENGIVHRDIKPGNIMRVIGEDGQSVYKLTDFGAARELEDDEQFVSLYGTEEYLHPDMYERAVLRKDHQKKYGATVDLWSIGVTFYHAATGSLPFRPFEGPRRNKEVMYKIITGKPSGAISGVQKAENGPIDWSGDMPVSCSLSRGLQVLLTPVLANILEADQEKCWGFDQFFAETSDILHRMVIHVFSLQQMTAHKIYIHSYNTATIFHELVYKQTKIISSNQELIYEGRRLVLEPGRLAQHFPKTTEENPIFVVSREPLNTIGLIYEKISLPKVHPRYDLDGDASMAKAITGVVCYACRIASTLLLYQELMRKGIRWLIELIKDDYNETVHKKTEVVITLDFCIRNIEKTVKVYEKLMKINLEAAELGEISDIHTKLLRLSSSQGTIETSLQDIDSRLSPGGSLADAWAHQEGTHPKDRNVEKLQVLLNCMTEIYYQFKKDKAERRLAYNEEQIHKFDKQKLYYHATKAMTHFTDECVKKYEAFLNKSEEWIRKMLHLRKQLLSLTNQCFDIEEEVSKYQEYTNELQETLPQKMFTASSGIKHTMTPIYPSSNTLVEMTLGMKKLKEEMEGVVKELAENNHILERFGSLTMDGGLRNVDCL
From the text: as §1

Row | SMILES | % Activity Remaining (AMPK (hum)) | remaining activity at 1 µM (HIPK2; 1 µM) | remaining activity at 1 µM (HIPK3; 1 µM) | remaining activity at 1 µM (IKK beta; 1 µM) | remaining activity at 1 µM (MAP4K5; 1 µM) | remaining activity at 1 µM (MKK6; 1 µM) | remaining activity at 1 µM (PAK4; 1 µM) | remaining activity at 1 µM (PKC gamma; 1 µM) | remaining activity at 1 µM (S6K1; 1 µM) | remaining activity at 1 µM (TBK1; 1 µM) | remaining activity at 1 µM (HIPK2) | remaining activity at 1 µM (HIPK3) | remaining activity at 1 µM (IKK beta) | remaining activity at 1 µM (MAP4K5) | remaining activity at 1 µM (MKK6) | remaining activity at 1 µM (PAK4) | remaining activity at 1 µM (PKC gamma) | remaining activity at 1 µM (S6K1) | remaining activity at 1 µM (TBK1)
1 | Cc1ccc(F)c(S(=O)(=O)Nc2ccc(-c3nc(OC[C@H]4CN(CCCCCCOCCOCCOCC(=O)N[C@H](C(=O)N5C[C@H](O)C[C@H]5C(=O)NCc5ccc(-c6scnc6C)cc5)C(C)(C)C)CCO4)c4cn[nH]c4n3)cc2)c1 [SGK3-PROTAC1] | 105% | 109% | 111% | 100% | 99% | 123% | 81% | 103% | 19% | 93% | – | – | – | – | – | – | – | – | –
2 | COc1ccc(Cl)c(S(=O)(=O)Nc2ccc(-c3nc(OC[C@H]4CNCCO4)c4c(C)n[nH]c4n3)cc2)c1 [290-R, reference compound] | 15% | – | – | – | – | – | – | – | – | – | 50% | 109% | 102% | 19% | 102% | 91% | 101% | 1% | 62%
3 | Cc1ccc(F)c(S(=O)(=O)Nc2ccc(-c3nc(OC[C@H]4CN(CCCCCCOCCOCCOCC(=O)N[C@H](C(=O)N5C[C@@H](O)C[C@H]5C(=O)NCc5ccc(-c6scnc6C)cc5)C(C)(C)C)CCO4)c4cn[nH]c4n3)cc2)c1 [cisSGK3-PROTAC1] | 108% | 100% | 105% | 101% | 101% | 108% | 113% | 100% | 20% | 111% | – | – | – | – | – | – | – | – | –
4 | Cc1ccc(F)c(S(=O)(=O)Nc2ccc(-c3nc(OC[C@H]4CNCCO4)c4cn[nH]c4n3)cc2)c1 [308-R, reference compound] | 78% | – | – | – | – | – | – | – | – | – | 47% | 44% | 67% | 63% | 66% | 102% | 90% | 1% | 83%
